The structures appear in SMILES notation.

This test has as its target GLP-1R (Homo sapiens, UniProt P43220). Description: GLP-1R Activation - cAMP Assay. It counts as cell-based. The conditions noted are these: each compound run on one of the two cAMP assays (Assay 1 or Assay 2, not specified). The procedure, abridged: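 cAMP rise read by HTRF after 30 min agonist exposure (10-point titration, 37 °C) in HBSS/20 mM Hepes/0.1% BSA, following 1 h pre-incubation. Cells: stable GLP-1R CHO line, 1,000/well, seeded overnight. Sigmoidal fit of response vs log concentration gives EC50.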

[1] abbreviates: cAMP increase in CHO cells stably expressing GLP-1R.

GLP-1R, sequence (P43220 24-463): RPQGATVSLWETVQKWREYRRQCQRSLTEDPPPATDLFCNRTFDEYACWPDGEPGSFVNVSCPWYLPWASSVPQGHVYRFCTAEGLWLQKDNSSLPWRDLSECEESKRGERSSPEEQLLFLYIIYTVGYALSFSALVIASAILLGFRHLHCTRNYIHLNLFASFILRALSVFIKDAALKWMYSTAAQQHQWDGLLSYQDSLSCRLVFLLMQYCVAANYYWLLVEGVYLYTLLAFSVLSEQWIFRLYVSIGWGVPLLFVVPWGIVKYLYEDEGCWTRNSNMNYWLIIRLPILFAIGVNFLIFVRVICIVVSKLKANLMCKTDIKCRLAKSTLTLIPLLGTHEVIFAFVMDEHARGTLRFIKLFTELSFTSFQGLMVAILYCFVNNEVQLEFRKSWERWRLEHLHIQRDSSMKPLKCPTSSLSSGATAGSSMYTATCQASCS

Consider `CC1(C)COCC1n1c(Cc2cc(F)c(-c3cccc(OCc4ccc(C(F)F)cc4F)n3)cc2F)nc2ccc(C(=O)O)cc21` (centres unmarked) [Example 21, 2-(4-(6-((4-(difluoromethyl)-2-fluorobenzyl)oxy)pyridin-2-yl)-2,5-difluorobenzyl)-1-(4,4-dimethyltetrahydrofuran-3-yl)-1H-benzo[d]imidazole-6-carboxylic Acid], for which it took 0.11 nM to reach a half-maximal effect under setting [1] (EC50).

Regarding `CC1(C)COC[C@H]1n1c(Cc2cc(F)c(-c3ccc(F)c(OCc4ccc(C#N)cc4F)n3)cc2F)nc2c(Cl)cc(C(=O)O)cc21` [Example 127, (S)-4-chloro-2-(4-(6-((4-cyano-2-fluorobenzyl)oxy)-5-fluoropyridin-2-yl)-2,5-difluorobenzyl)-1-(4,4-dimethyltetrahydrofuran-3-yl)-1H-benzo[d]imidazole-6-carboxylic Acid], the EC50 under setting [1] was 0.353 nM.

Consider `CO[C@@]1(C)COC[C@@H]1n1c(Cc2cc(F)c(-c3cccc(OCc4ccc(C#N)cc4F)n3)cc2F)nc2ccc(C(=O)O)cc21` (single isomer, unassigned) [Example 313], for which the EC50 under setting [1] worked out at 1.14 nM.

For `COC[C@H]1COC[C@H]1n1c(Cc2cc(F)c(-c3cccc(OCc4ccc(Cl)cc4)n3)cc2F)nc2ccc(C(=O)O)cc21` [Example 544, 2-(4-(6-((4-chlorobenzyl)oxy)pyridin-2-yl)-2,5-difluorobenzyl)-1-((3S,4S)-4-(methoxymethyl)tetrahydrofuran-3-yl)-1H-benzo[d]imidazole-6-carboxylic acid], under setting [1], the EC50 stood at 0.048 nM.

`CC1(C)COC[C@H]1n1c(Cc2c(F)cc(-c3cccc(OCc4ccc(Cl)cc4)n3)c(F)c2F)nc2c(F)cc(C(=O)O)cc21` [Example 243, (S)-2-(4-(6-((4-chlorobenzyl)oxy)pyridin-2-yl)-2,3,6-trifluorobenzyl)-1-(4,4-dimethyltetrahydrofuran-3-yl)-4-fluoro-1H-benzo[d]imidazole-6-carboxylic acid] registered a concentration giving a half-maximal response (EC50) under setting [1] of 0.022 nM.

The molecule `CC1(C)COC[C@H]1n1c(Cc2c(F)cc(-c3cccc(OCc4ccc(-n5ccnn5)cc4F)n3)c(F)c2F)nc2c(F)cc(C(=O)O)cc21` [Example 241, (S)-1-(4,4-dimethyltetrahydrofuran-3-yl)-4-fluoro-2-(2,3,6-trifluoro-4-(6-((2-fluoro-4-(1H-1,2,3-triazol-1-yl)benzyl)oxy)pyridin-2-yl)benzyl)-1H-benzo[d]imidazole-6-carboxylic acid] came in with an EC50 under setting [1] of 0.013 nM.

`Cc1cc(Cc2nc3c(F)cc(C(=O)O)cc3n2[C@@H]2COCC2(C)C)c(Cl)cc1-c1ccc(F)c(OCc2ccc(Cl)cc2F)n1` [Example 334, (S)-2-(2-chloro-4-(6-((4-chloro-2-fluorobenzyl)oxy)-5-fluoropyridin-2-yl)-5-methylbenzyl)-1-(4,4-dimethyltetrahydrofuran-3-yl)-4-fluoro-1H-benzo[d]imidazole-6-carboxylic acid] returned an EC50 under setting [1] of 0.067 nM.

Under setting [1], `COCCn1c(Cc2cc(F)c(-c3cc(N)nc(OCc4ccc(C#N)cc4F)n3)cc2F)nc2ccc(C(=O)O)cc21` [Example 45, 2-(4-(6-amino-2-((4-cyano-2-fluorobenzyl)oxy)pyrimidin-4-yl)-2,5-difluorobenzyl)-1-(2-methoxyethyl)-1H-benzo[d]imidazole-6-carboxylic Acid] came in with an EC50 of 16.7 nM.

For the molecule `COCCn1c(Cc2cc(F)c(-c3cccc(OCc4ccc(-c5cnn(CC(F)F)c5)cc4F)n3)cc2F)nc2ccc(C(=O)O)cc21` [Example 114], the EC50 under setting [1] stood at 5.99 nM.

Under setting [1], `CC1(C)COC[C@H]1n1c(Cc2ccc(-c3ccc(F)c(OCc4ccc(C#N)cc4)n3)cc2F)nc2c(F)cc(C(=O)O)cc21` [Example 308, (S)-2-(4-(6-((4-cyanobenzyl)oxy)-5-fluoropyridin-2-yl)-2-fluorobenzyl)-1-(4,4-dimethyltetrahydrofuran-3-yl)-4-fluoro-1H-benzo[d]imidazole-6-carboxylic acid] showed an EC50 of 0.18 nM.

With `CC(C)O[C@H]1COC[C@H]1n1c(Cc2cc(F)c(-c3cccc(OCc4ccc(Cl)cc4F)n3)cc2F)nc2ccc(C(=O)O)cc21` [Example 570, 2-(4-(6-((4-chloro-2-fluorobenzyl)oxy)pyridin-2-yl)-2,5-difluorobenzyl)-1-((3R,4R)-4-isopropoxytetrahydrofuran-3-yl)-1H-benzo[d]imidazole-6-carboxylic acid], it took 0.955 nM to reach a half-maximal effect under setting [1] (EC50).

With `CC1(C)COCC1n1c(Cc2cc(F)c(-c3cccc(OCc4ccc(C(F)F)cc4F)n3)cc2F)nc2c(F)cc(C(=O)O)cc21` (centres unmarked) [Example 506, 2-(4-(6-((4-(difluoromethyl)-2-fluorobenzyl)oxy)pyridin-2-yl)-2,5-difluorobenzyl)-1-(4,4-dimethyltetrahydrofuran-3-yl)-4-fluoro-1H-benzo[d]imidazole-6-carboxylic acid], under setting [1], the response was half-maximal at 0.242 nM (EC50).

As for `CC1(C)COC[C@H]1n1c(Cc2cc(F)c(-c3cccc(OCc4ccc(Cl)cc4F)n3)cc2F)nc2c(Cl)cc(C(=O)O)cc21` [Example 126, (S)-4-chloro-2-(4-(6-((4-chloro-2-fluorobenzyl)oxy)pyridin-2-yl)-2,5-difluorobenzyl)-1-(4,4-dimethyltetrahydrofuran-3-yl)-1H-benzo[d]imidazole-6-carboxylic Acid], the EC50 under setting [1] was 0.332 nM.

Molecule `COCCn1c(Cc2c(F)cc(-c3ccc(F)c(OCc4ccc(C#N)cc4F)n3)c(F)c2F)nc2c(F)cc(C(=O)O)cc21` [Example 232, 2-(4-(6-((4-cyano-2-fluorobenzyl)oxy)-5-fluoropyridin-2-yl)-2,3,6-trifluorobenzyl)-4-fluoro-1-(2-methoxyethyl)-1H-benzo[d]imidazole-6-carboxylic acid] gave an EC50 under setting [1] of 0.118 nM.

Regarding `COCCn1c(Cc2cc(F)c(-c3cccc(OCc4ccc(-c5ncnn5C)cc4F)n3)cc2F)nc2ccc(C(=O)O)cc21` [Example 112], the EC50 under setting [1] is 23 nM.

As to `CC1(C)COCC1n1c(Cc2cc(F)c(-c3cccc(OCc4ccc(Cl)cc4)n3)cc2F)nc2ccc(C(=O)O)cc21` (centres unmarked) [Example 387, 2-(4-(6-((4-chlorobenzyl)oxy)pyridin-2-yl)-2,5-difluorobenzyl)-1-(4,4-dimethyltetrahydrofuran-3-yl)-1H-benzo[d]imidazole-6-carboxylic acid], the EC50 under setting [1] came to 0.043 nM.

In turn, `N#Cc1ccc(COc2cccc(-c3cc(F)c(Cc4nc5ccc(C(=O)O)cc5n4C4COC5(COC5)C4)cc3F)n2)c(F)c1` (centres unmarked) [Example 202, 2-(4-(6-((4-cyano-2-fluorobenzyl)oxy)pyridin-2-yl)-2,5-difluorobenzyl)-1-(2,5-dioxaspiro[3.4]octan-7-yl)-1H-benzo[d]imidazole-6-carboxylic acid] came in with an EC50 under setting [1] of 4.01 nM.

Under setting [1], `N#Cc1ccc(COc2cccc(-c3cc(F)c(Cc4nc5ccc(C(=O)O)cc5n4C4CCOCC45CC5)cc3F)n2)c(F)c1` (centres unmarked) [Example 82, 2-(4-(6-((4-cyano-2-fluorobenzyl)oxy)pyridin-2-yl)-2,5-difluorobenzyl)-1-(5-oxaspiro[2.5]octan-8-yl)-1H-benzo[d]imidazole-6-carboxylic Acid] had an EC50 of 1.6 nM.

As to `COCCn1c(Cc2cc(F)c(-c3cccc(OCc4ccc(-n5ccnn5)cc4F)n3)cc2F)nc2ccc(C(=O)O)c(F)c21` [Example 374, 2-(2,5-difluoro-4-(6-((2-fluoro-4-(1H-1,2,3-triazol-1-yl)benzyl)oxy)pyridin-2-yl)benzyl)-7-fluoro-1-(2-methoxyethyl)-1H-benzo[d]imidazole-6-carboxylic acid], under setting [1], the EC50 was determined as 0.571 nM.

As for `CC1(C)COC[C@H]1n1c(Cc2cc(F)c(-c3ccc(F)c(OCc4ccc(F)cc4)n3)cc2F)nc2ccc(C(=O)O)cc21` [Example 557, (S)-2-(2,5-difluoro-4-(5-fluoro-6-((4-fluorobenzyl)oxy)pyridin-2-yl)benzyl)-1-(4,4-dimethyltetrahydrofuran-3-yl)-1H-benzo[d]imidazole-6-carboxylic acid], the EC50 under setting [1] stood at 0.031 nM.

Under setting [1], `CC1(C)COC[C@H]1n1c(Cc2ccc(-c3cccc(OCc4ccc(Cl)cc4F)n3)cc2F)nc2c(F)cc(C(=O)O)cc21` [Example 329, (S)-2-(4-(6-((4-chloro-2-fluorobenzyl)oxy)pyridin-2-yl)-2-fluorobenzyl)-1-(4,4-dimethyltetrahydrofuran-3-yl)-4-fluoro-1H-benzo[d]imidazole-6-carboxylic acid] yielded an EC50 of 0.062 nM.

Under setting [1], `CC1(C)COC[C@@H]1n1c(Cc2cc(F)c(-c3cccc(OCc4ccc(C#N)cc4F)n3)cc2F)nc2c(F)cc(C(=O)O)cc21` [Example 11, (R)-2-(4-(6-((4-cyano-2-fluorobenzyl)oxy)pyridin-2-yl)-2,5-difluorobenzyl)-1-(4,4-dimethyltetrahydrofuran-3-yl)-4-fluoro-1H-benzo[d]imidazole-6-carboxylic Acid] displayed an EC50 of 0.26 nM.

In the case of `COCCn1c(Cc2cc(F)c(-c3cccc(OCc4ccc(-c5cccnc5)cc4F)n3)cc2F)nc2ccc(C(=O)O)cc21` [Example 103, 2-(2,5-difluoro-4-(6-((2-fluoro-4-(pyridin-3-yl)benzyl)oxy)pyridin-2-yl)benzyl)-1-(2-methoxyethyl)-1H-benzo[d]imidazole-6-carboxylic Acid], the midpoint of the response under setting [1], the EC50, lay at 1.23 nM.

`CC1(C)COC[C@H]1n1c(Cc2cc(F)c(-c3cccc(OCc4ccc(C(F)F)nc4)n3)cc2F)nc2ccc(C(=O)O)cc21` [Example 420, (S)-2-(4-(6-((6-(difluoromethyl)pyridin-3-yl)methoxy)pyridin-2-yl)-2,5-difluorobenzyl)-1-(4,4-dimethyltetrahydrofuran-3-yl)-1H-benzo[d]imidazole-6-carboxylic acid]: the EC50 under setting [1] worked out at 0.413 nM.

Take `COC(=O)N1C[C@H](OC)[C@H](n2c(Cc3cc(F)c(-c4cccc(OCc5ccc(C#N)cc5F)n4)cc3F)nc3ccc(C(=O)O)cc32)C1` [Example 85]: for the setting “[…]”, the EC50 came to 1440 nM.

Regarding `COCCn1c(C(CO)c2cc(F)c(-c3cccc(OCc4ccc(C#N)cc4F)n3)cc2F)nc2ccc(C(=O)O)cc21` (centres unmarked) [Example 54], the EC50 under setting [1] was found to be 31.6 nM.

(Values after patent US12570642B2, “GLP-IR modulating compounds” (Gilead Sciences, Inc., priority 2021, dated 2026).)
